Measured values published in patent US11535596B2 (priority 2020, dated 2022).
Where two headings read alike, the source gives them in different places.

What was measured:
[1] = Caco-2 bidirectional permeability assay; format: in vitro ADME; set-up: Papp A→B / Papp B→A: dose or concentration left out as unconfirmed; settings: human
Excerpt: The human colon carcinoma cell Caco-2 provides a well-established and effective model for predicting intestinal absorption of chemicals, and in determining the mechanism of transport. […] The method is used to assess the bidirectional permeability of a test compound, from the apical to the basolateral side (A-B) of a Caco-2 cell monolayer membrane, and vice versa (B-A). R. B. van Breemen, Y. Li, “Caco-2 cell permeability assays to measure drug absorption,” Expert Opin. Drug Metab. […] The transport rate of a compound across the monolayer is highly predictive of the in vivo absorption of the compound across the gut wall, and the Caco-2 permeability assay is an FDA-recommended method for evaluating the absorption of orally-administered drugs. Results of this assay for selected reference drugs and compounds of the invention are set out in Table 3.

[2] = Drug stability in human liver microsomes; format: in vitro ADME
Excerpt: Testing of Drug Stability in Human Liver Microsomes
This assay involves exposing a test compound to vesicles which contain the contents of digestive organelles (endoplasmic reticula) derived from human liver cells. The tests were done by Microconstants Inc., San Diego, Calif., using methods substantially as described in J. R. Hill, “In vitro drug metabolism using liver microsomes,” Curr. Protocols Pharmacol., Chapter 7, Unit 7.8 (2004), John Wiley & Sons, Inc.
The results, in Table 1 below, indicate the percentage decomposition of the test compound after 1 hour. […] Although degraded as rapidly, or even more rapidly than DM, other compounds remain of interest due to their receptor binding activities, as detailed further below.

[3] = target: phencyclidine site of NMDA-type glutamate receptors; assay: NMDA receptor (phencyclidine site) radioligand binding inhibition
Procedure: In vitro binding assays for the phencyclidine site of NMDA-type glutamate receptors, and for sigma-1 receptors, both of which are known to be bound by DM, were conducted by Sekisui Medical Co., Ltd. of Ibaraki, Japan. In these assays, DM acts as an antagonist at NMDA receptors, which are excitatory in their effects, thereby allowing DM to reduce, calm, and modulate unwanted neuronal activity in neuronal networks that are activated by glutamate agonist activity at NMDA receptors. DM acts as an agonist at sigma-1 receptors, which are inhibitory receptors, thereby allowing DM to reduce unwanted neuronal activity by a second mechanism. Assays for sigma-1 and NMDA (phencyclidine site) receptor affinities, based on inhibition of radioligand binding, provided the results shown in Table 2 below.

[4] = target: human serotonin transporter (Homo sapiens (Human), UniProt P31645); assay: biochemical; settings: 3H-imipramine binding, HEK-293 membranes; for IC50: read-out: SERT IC50; for Ki: read-out: SERT Ki
Excerpt: Serotonin Transporter (SERT) Assay
The serotonin transporter (SERT) is a monoamine transporter protein that transports serotonin from the synaptic cleft back to the presynaptic neuron (serotonin reuptake.) Serotonin modulates emotional states in humans, and inhibition of SERT activity is the basis for the SSRI class of antidepressants.

human recombinant hERG = human recombinant hERG (Homo sapiens (Human), UniProt Q12809); assay: hERG radioligand (3H-astemizole) binding assay
Excerpt: Cardiac Potassium Channel (hERG) Assays
The human ether-a-go-go related gene (hERG) encodes the inward-rectifying voltage-gated potassium channel (IKr) in the heart, which is involved in cardiac repolarization. Inhibition of the hERG current causes QT interval prolongation, potentially resulting in ventricular tachyarrhythmia, and the detection of this potential liability is desirable at an early stage of drug discovery.

μ opioid receptor = μ opioid receptor (Homo sapiens (Human), UniProt P35372); assay: μ opioid receptor radioligand (3H-diprenorphine) binding assay
sigma-1 receptors = sigma-1 receptors (Homo sapiens (Human), UniProt Q99720); assay: biochemical; format: binding
κ opioid receptor = κ opioid receptor (Homo sapiens (Human), UniProt P41145); assay: biochemical; settings: 3H-diprenorphine binding; for IC50: read-out: Opiate κ IC50; for Ki: read-out: Opiate κ Ki
[5] = cited from earlier work
[6] = inhibition of radioligand binding, read-out: Sigma-1 Ki
[7] = inhibition of radioligand binding, read-out: Sigma-1 IC50

human recombinant hERG, sequence (Q12809 whole entry, looked up): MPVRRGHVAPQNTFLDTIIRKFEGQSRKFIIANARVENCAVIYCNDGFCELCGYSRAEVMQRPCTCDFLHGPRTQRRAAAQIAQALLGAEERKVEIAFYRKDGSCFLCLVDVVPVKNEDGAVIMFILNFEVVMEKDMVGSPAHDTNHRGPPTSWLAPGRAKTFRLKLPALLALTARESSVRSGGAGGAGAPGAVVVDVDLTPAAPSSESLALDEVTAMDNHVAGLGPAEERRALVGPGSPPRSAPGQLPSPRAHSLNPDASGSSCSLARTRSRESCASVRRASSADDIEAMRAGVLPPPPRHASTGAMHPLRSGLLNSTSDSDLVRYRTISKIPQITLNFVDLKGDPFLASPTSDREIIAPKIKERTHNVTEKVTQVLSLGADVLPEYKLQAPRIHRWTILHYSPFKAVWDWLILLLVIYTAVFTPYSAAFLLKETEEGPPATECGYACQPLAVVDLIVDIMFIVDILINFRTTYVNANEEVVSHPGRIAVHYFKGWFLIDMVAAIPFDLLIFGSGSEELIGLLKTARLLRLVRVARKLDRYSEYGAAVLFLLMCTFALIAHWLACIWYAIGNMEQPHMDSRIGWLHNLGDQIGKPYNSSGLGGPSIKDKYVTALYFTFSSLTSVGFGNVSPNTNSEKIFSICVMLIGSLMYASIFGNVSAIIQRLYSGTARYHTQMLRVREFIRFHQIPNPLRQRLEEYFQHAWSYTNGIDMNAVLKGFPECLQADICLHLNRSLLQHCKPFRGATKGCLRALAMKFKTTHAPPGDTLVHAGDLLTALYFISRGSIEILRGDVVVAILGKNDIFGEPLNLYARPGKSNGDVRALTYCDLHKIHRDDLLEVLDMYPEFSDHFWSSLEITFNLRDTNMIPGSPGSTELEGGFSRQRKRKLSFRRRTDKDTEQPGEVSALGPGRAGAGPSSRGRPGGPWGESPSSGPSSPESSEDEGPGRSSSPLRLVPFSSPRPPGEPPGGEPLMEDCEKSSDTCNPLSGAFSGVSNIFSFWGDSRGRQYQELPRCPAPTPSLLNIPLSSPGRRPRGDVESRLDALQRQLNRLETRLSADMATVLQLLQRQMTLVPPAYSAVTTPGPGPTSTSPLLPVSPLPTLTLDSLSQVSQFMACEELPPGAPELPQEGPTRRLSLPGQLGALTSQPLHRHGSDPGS
sigma-1 receptors, sequence (Q99720 whole entry, looked up): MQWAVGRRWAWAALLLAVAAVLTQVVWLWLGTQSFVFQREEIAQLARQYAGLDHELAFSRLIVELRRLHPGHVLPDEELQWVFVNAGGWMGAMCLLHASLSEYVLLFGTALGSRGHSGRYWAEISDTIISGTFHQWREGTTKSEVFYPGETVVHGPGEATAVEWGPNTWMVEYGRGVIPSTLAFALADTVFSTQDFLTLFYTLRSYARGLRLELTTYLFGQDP

With `CC(C)NCC(O)COc1cccc2ccccc12` (stereo not drawn) [Propranolol, reference compound] the Papp A→B ([1]; apical to basolateral) was 21.2 ×10⁻⁶ cm/s and the Papp B→A ([1]; basolateral to apical) was 39 ×10⁻⁶ cm/s.

With `CN1CC[C@@]23CCCC[C@@H]2[C@@H]1Cc1ccc(OCc2ccncc2)cc13` [CNS4] the “% decomposition at 1 hour” value [2] was 100%.

Work on `[2H]C([2H])(Oc1ccc2c(c1)[C@]13CCCC[C@@H]1[C@H](C2)N(C([2H])([2H])[2H])CC3)C(F)F` [CNS1-D5, (1S,9S,10S)-4-(1,1-dideuterio-2,2-difluoroethoxy)-17-(trideuteriomethyl)-17-azatetracyclo[7.5.3.0^1,10.0^2,7]-heptadeca-2,4,6-triene] yielded a Papp A→B at 0.1 μM ([1]; apical to basolateral) of 14.4 ×10⁻⁶ cm/s, a Papp B→A at 0.1 μM ([1]; basolateral to apical) of 12.5 ×10⁻⁶ cm/s and a Papp A→B at 1 μM ([1]; apical to basolateral) of 18.4 ×10⁻⁶ cm/s. For the same molecule, the Papp B→A at 1 μM ([1]; basolateral to apical) was 15.4 ×10⁻⁶ cm/s, the Ki [3] was 9.9 µM and the half-life [2] was greater than 240 min. For the same molecule, the “% decomposition at 1 hour” value [2] was 9.7%, the IC50 [4] was 0.0441 µM and the Ki [4] was 0.0262 µM. It also gave an IC50 (human recombinant hERG) of 34.5 µM, a Ki (human recombinant hERG) of 7.48 µM and an IC50 (μ opioid receptor) of 54.7 µM. The Ki (μ opioid receptor) was 10.1 µM, the Ki (sigma-1 receptors; [6]) was 0.022 µM and the IC50 (κ opioid receptor) was 29.8 µM. For the same molecule, the Ki (κ opioid receptor) was 12 µM.

For `[2H]C([2H])(Oc1ccc2c(c1)[C@]1(CCN(C)CC=C)CCCC[C@@H]1C=C2)C(F)F` [CNS23-D2], the half-life [2] was 32 min, the IC50 (sigma-1 receptors; [7]) was 0.0111 µM and the Ki (sigma-1 receptors; [6]) was 0.0078 µM.

`C=CCN(C)CC[C@@]12CCCC[C@@H]1C=Cc1ccc(OC)cc12` [CNS22] gave a half-life [2] of 36 min, an IC50 (sigma-1 receptors) of 0.0291 µM and a Ki (sigma-1 receptors) of 0.0205 µM.

In the case of `CN1CC[C@@]23CCCC[C@@H]2C1Cc1ccc(OCCF)cc13` [CNS2], the “rate of metabolism and degradation compared with DM” value [2] is reported as “metabolized and degraded less rapidly than DM” and the “% decomposition at 1 hour” value [2] is reported as 15.4%.

Molecule `COc1cc2c(cc1Br)CC1C3CCCC[C@@]23CCN1C` (stereo partly drawn) [CNS7-M] has an IC50 (sigma-1 receptors) greater than 10 µM.

Work on `[2H]C([2H])(Oc1ccc2c(c1)[C@]13CCCC[C@@H]1[C@H](C2)N(C)CC3)C(F)F` [CNS1-D2, (1S,9S,10S)-4-(1,1-dideuterio-2,2-difluoroethoxy)-17-methyl-17-azatetracyclo[7.5.3.0^1,10.0^2,7]heptadeca-2(7),3,5-triene] yielded an IC50 [3] greater than 30 µM, a half-life [2] of 123 min and an IC50 (sigma-1 receptors; [7]) of 0.0578 µM. For the same molecule, the Ki (sigma-1 receptors; [6]) was 0.0406 µM.

For `COc1ccc2c(c1)[C@]13CCCCC1C(C2)N(Cc1cccnc1)CC3` (stereo partly drawn) [CNS10], the “% decomposition at 1 hour” value [2] was 98.4%.

With `CN1CC[C@@]23CCCC[C@@H]2C1Cc1ccc(OCC(F)F)cc13` [CNS1] the “rate of metabolism and degradation compared with DM” value [2] was “metabolized and degraded less rapidly than DM” and the “% decomposition at 1 hour” value [2] was 6.1%.

With `CN1CC[C@@]23CCCC[C@@H]2[C@@H]1Cc1ccc(OCC(F)(F)F)cc13` [CNS-222, (1S,9S,10S)-4-(2,2,2-trifluoroethoxy)-17-methyl-17-azatetracyclo[7.5.3.0^1,10.0^2,7]heptadeca-2(7),3,5-triene] the IC50 (sigma-1 receptors; [7]) was 0.05 µM.

`Cc1ccc2c(c1)[C@]13CCCC[C@@H]1[C@H](C2)N(C)CC3` [Dimemorphan (DIM), reference compound] gave an IC50 [3] greater than 30 µM, a t1/2 [2] of 22 min and an IC50 (sigma-1 receptors; [7]) of 0.527 µM. For the same molecule, the Ki (sigma-1 receptors; [6]) was 0.371 µM.

With `[2H]C([2H])(Oc1ccc2c(c1)[C@]13CCCC[C@@H]1[C@H](C2)NCC3)C(F)F` [N-desmethyl CNS1-D2, (1S,9S,10S)-4-(1,1-dideuterio-2,2-difluoro-ethoxy)-17-azatetracyclo[7.5.3.0^1,10.0^2,7]heptadeca-2,4,6-triene] the Papp A→B at 0.1 μM ([1]; apical to basolateral) was 9.71 ×10⁻⁶ cm/s, the Papp B→A at 0.1 μM ([1]; basolateral to apical) was 6.33 ×10⁻⁶ cm/s and the Papp A→B at 1 μM ([1]; apical to basolateral) was 10.8 ×10⁻⁶ cm/s. It also gave a Papp B→A at 1 μM ([1]; basolateral to apical) of 10.1 ×10⁻⁶ cm/s, a Ki [3] of 3.08 µM and a half-life [2] greater than 240 min. The “% decomposition at 1 hour” value [2] was 10.1%, the IC50 [4] was 0.47 µM and the Ki [4] was 0.279 µM. It also gave an IC50 (human recombinant hERG) of 26.6 µM, a Ki (human recombinant hERG) of 5.73 µM and an IC50 (μ opioid receptor) of 142 µM. The Ki (μ opioid receptor) was 26.3 µM, the Ki (sigma-1 receptors; [6]) was 0.07 µM and the IC50 (κ opioid receptor) was 37.7 µM. For the same molecule, the Ki (κ opioid receptor) was 15.2 µM.

For `CN1CC[C@@]23CCCCC2C1Cc1ccc(OCC(F)F)c(Br)c13` (stereo partly drawn) [CNS6-A1-D2], the IC50 [3] was greater than 30 µM, the t1/2 [2] was 60 min and the IC50 (sigma-1 receptors; [7]) was 0.0218 µM. The Ki (sigma-1 receptors; [6]) was 0.0153 µM.

`[2H]C([2H])(Oc1ccc2c(c1)[C@]13CCCC[C@@H]1[C@H](C2)N(CCOC)CC3)C(F)F` [CNS27-D2, (1S,9S,10S)-4-(1,1-dideuterio-2,2-difluoro-ethoxy)-17-(2-methoxyethyl)-17-azatetracyclo[7.5.3.0^1,10.0^2,7]-heptadeca-2,4,6-triene] showed a Papp A→B at 0.1 μM ([1]; apical to basolateral) of 10.2 ×10⁻⁶ cm/s, a Papp B→A at 0.1 μM ([1]; basolateral to apical) of 9.76 ×10⁻⁶ cm/s and a Papp A→B at 1 μM ([1]; apical to basolateral) of 11.6 ×10⁻⁶ cm/s. The Papp B→A at 1 μM ([1]; basolateral to apical) was 13.1 ×10⁻⁶ cm/s, the Ki [3] was greater than 23 µM and the IC50 [4] was 2.68 µM. It also gave a Ki [4] of 1.59 µM, an IC50 (human recombinant hERG) of 22.3 µM and a Ki (human recombinant hERG) of 4.8 µM. The IC50 (μ opioid receptor) was 124 µM, the Ki (μ opioid receptor) was 23 µM and the Ki (sigma-1 receptors; [6]) was 0.0016 µM. For the same molecule, the IC50 (κ opioid receptor) was 28.8 µM and the Ki (κ opioid receptor) was 11.6 µM.

In the case of `CN1CC[C@@]23CCCC[C@@H]2[C@@H]1Cc1ccc(O)c(Br)c13` [CNS6, (1S,9S,10S)-3-bromo-4-hydroxy-17-methyl-17-azatetracyclo[7.5.3.0^1,10.0^2,7]-heptadeca-2(7),3,5-triene], the IC50 [3] is reported as greater than 30 µM, the “% decomposition at 1 hour” value [2] is reported as 56% and the IC50 (sigma-1 receptors; [7]) is reported as 0.172 µM. It also gave a Ki (sigma-1 receptors; [6]) of 0.121 µM.

`CN1CC[C@@]23CCCC[C@@H]2[C@@H]1Cc1ccc(O)cc13` [Dextorphan (DX), reference compound] gave an IC50 [3] of 1.53 µM, a Ki [3] of 1.11 µM and an IC50 (sigma-1 receptors; [7]) of 0.259 µM. For the same molecule, the Ki (sigma-1 receptors; [6]) was 0.182 µM.

`COc1ccc2c(c1Br)[C@]13CCCCC1[C@H](C2)N(C)CC3` (stereo partly drawn) [CNS6-A2] gave an IC50 (sigma-1 receptors; [7]) of 0.247 µM.

`COc1ccc2c(c1)[C@]13CCCC[C@@H]1[C@H](C2)N(C)CC3` [Dextromethorphan (DM), 3-methoxy-17-methyl-(9α,13α,14α)-morphinan, reference compound] gave a Papp A→B at 0.1 μM ([1]; apical to basolateral) of 15.9 ×10⁻⁶ cm/s, a Papp B→A at 0.1 μM ([1]; basolateral to apical) of 10.8 ×10⁻⁶ cm/s and a Papp A→B at 1 μM ([1]; apical to basolateral) of 19 ×10⁻⁶ cm/s. It also gave a Papp B→A at 1 μM ([1]; basolateral to apical) of 14.2 ×10⁻⁶ cm/s, an IC50 [3] of 6.82 µM and a Ki [3] of 4.52 µM. For the same molecule, the half-life [2] was 35 min, the “% decomposition at 1 hour” value [2] was 69% and the plasma levels ([5]; fast metabolizers, 30 mg dose, four hours post ingestion) was “less than 5 ng/ml”. The plasma levels ([5]; poor metabolizers, oral dose of 30 mg, at 24 hours) was “above 5 ng/ml”, the IC50 (human recombinant hERG) was 49.1 µM and the Ki (human recombinant hERG) was 10.6 µM. For the same molecule, the IC50 (μ opioid receptor) was 51.7 µM, the Ki (μ opioid receptor) was 9.58 µM and the IC50 (sigma-1 receptors) was 0.137 µM. For the same molecule, the Ki (sigma-1 receptors) was 0.0963 µM.
